Laboratory results as given in patent US20120172361A1, “TRIAZINE DERIVATIVES AND THEIR THERAPEUTICAL APPLICATIONS” (CALIFORNIA CAPITAL EQUITY, LLC, priority 2009, published 2012).

Target: T1, Aurora-A(h) (Homo sapiens, UniProt O14965)
T1 construct: purchased Millipore (KinaseProfiler service); also Reaction Biology Corp. (Kinase Hotspot)
T1 sequence (O14965 1-403): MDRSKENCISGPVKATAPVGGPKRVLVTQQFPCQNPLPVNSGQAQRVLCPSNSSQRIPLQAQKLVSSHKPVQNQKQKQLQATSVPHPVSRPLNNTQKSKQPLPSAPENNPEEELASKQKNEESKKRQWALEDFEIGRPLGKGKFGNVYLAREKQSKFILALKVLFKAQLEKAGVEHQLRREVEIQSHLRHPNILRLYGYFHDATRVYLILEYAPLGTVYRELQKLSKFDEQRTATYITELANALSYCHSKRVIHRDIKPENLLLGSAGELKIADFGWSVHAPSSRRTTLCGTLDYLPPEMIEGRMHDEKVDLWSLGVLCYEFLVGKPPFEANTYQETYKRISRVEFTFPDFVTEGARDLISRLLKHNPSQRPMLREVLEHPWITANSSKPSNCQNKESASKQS
Test: Aurora-A kinase assay (KinaseProfiler Service Assay Protocols, Millipore; also Kinase Hotspot, Reaction Biology Corp.)
Type: biochemical
Conditions: compound concentration 1 μM
Protocol: This example illustrated Aurora Kinase Assays of selected Compounds from this invention (referred to Daniele Fancelli et al, J. Med. Chem., 2006, 49 (24), pp 7247-7251). The KinaseProfiler™ Service Assay Protocols (Millipore) were used to test the kinase inhibiting activity of novel compounds from this invention. To do this, the buffer composition was as: 20 mM MOPS, 1 mM EDTA, 0.01% Brij-35, 5% Glycerol, 0.1% β-mercaptoethanol, 1 mg/mL BSA. Test compounds were initially dissolved in DMSO at the desired concentration, then serially diluted to the kinase assay buffer. In a final reaction volume of 25 μL, Aurora-A(h) (5-10 mU) is incubated with 8 mM MOPS pH 7.0, 0.2 mM EDTA, 200 μM LRRASLG (Kemptide), 10 mM MgAcetate and [γ33P-ATP]. The reaction was initiated by the addition of the MgATP mix. After incubation for 40 minute at room temperature, the reaction was stopped by addition of 5 μL of a 3% phosphoric acid solution. 10 μL of the reaction was then spotted onto a P30 filtermat and washed three times for 5 minutes in 50 mM phosphoric acid and once in methanol prior to drying and scintillation counting. Wells containing substrate but no kinase and wells containing a phosphopeptide control were used to set 0% and 100% phosphorylation value, respectively.
Also Kinase Hotspot SM kinase assay was used to test the compounds for IC50 or % inhibitions (Reaction Biology Corp.). Inhibitor IC50 values were determined by titration of compound at the optimal kinase concentration (Kinase EC50).

Row | Compound | inhibition at 1 µM
1 | Cc1cc(Nc2nc(Sc3ccc(NC(=O)C4CC4)cc3)nc(N3CCN(C)CC3)n2)n[nH]1 [Example 2] | > 90%
2 | CCc1nc(Nc2cc(C)[nH]n2)nc(Sc2ccc(NC(=O)C3CC3)cc2)n1 [Example 4] | > 90%
3 | Cc1cc(Nc2nc(Sc3ccc(NC(=O)C4CC4)cc3)nc(C3CC3)n2)n[nH]1 [Example 6] | > 90%
4 | CN1CCN(c2nc(Nc3nc[nH]n3)nc(Sc3ccc(NC(=O)C4CC4)cc3)n2)CC1 [Example 8] | < 50%
5 | CN1CCN(c2nc(Nc3nc4ccccc4[nH]3)nc(Sc3ccc(NC(=O)C4CC4)cc3)n2)CC1 [Example 9] | > 50%
6 | Cc1cnc(Nc2nc(Sc3ccc(NC(=O)C4CC4)cc3)nc(N3CCN(C)CC3)n2)s1 [Example 10] | > 90%
7 | CN1CCN(c2nc(Nc3nncs3)nc(Sc3ccc(NC(=O)C4CC4)cc3)n2)CC1 [Example 11] | < 50%
8 | Cc1cc(Nc2nc(Sc3ccc(NC(=O)C4CC4)cc3)nc(N3CCN(c4ccncc4)CC3)n2)n[nH]1 [Example 12] | > 90%
9 | CCc1nc(Nc2cc(C)[nH]n2)nc(N2CCN(c3ccncc3)CC2)n1 [Example 13] | > 50%
10 | O=C(Nc1ccc(Sc2nc(Nc3ncc[nH]3)nc(-c3ccccc3)n2)cc1)C1CC1 [Example 16] | < 50%
11 | Cc1cnc(Nc2nc(Sc3ccc(NC(=O)C4CC4)cc3)nc(N3CCN(CCO)CC3)n2)s1 [Example 19] | > 90%
12 | Cc1cnc(Nc2nc(Sc3ccc(NC(=O)C4CC4)cc3)nc(N3CCN(c4ccncc4)CC3)n2)s1 [Example 20] | > 90%
13 | Cc1cnc(Nc2nc(Sc3ccc(NC(=O)C4CC4)cc3)nc(N3CCOCC3)n2)s1 [Example 21] | > 90%
14 | CCOC(=O)c1cc(Nc2nc(Sc3ccc(NC(=O)C4CC4)cc3)nc(N3CCN(C)CC3)n2)n[nH]1 [Example 30] | > 90%
15 | Cc1cnc(Nc2nc(NCCCN3CCOCC3)nc(Sc3ccc(NC(=O)C4CC4)cc3)n2)s1 [Example 38] | > 90%
16 | Cc1cnc(Nc2nc(NCCN(C)C)nc(Sc3ccc(NC(=O)C4CC4)cc3)n2)s1 [Example 39] | > 90%
17 | Cc1cnc(Nc2nc(Sc3ccc(NC(=O)C4CC4)cc3)nc(N(C)CCN(C)C)n2)s1 [Example 40] | > 50%
18 | CCCCNc1nc(Nc2ncc(C)s2)nc(Sc2ccc(NC(=O)C3CC3)cc2)n1 [Example 41] | < 50%
19 | CCN(CC)c1nc(Nc2ncc(C)s2)nc(Sc2ccc(NC(=O)C3CC3)cc2)n1 [Example 42] | > 50%

Row | Compound | inhibition at 1 µM
20 | Cc1cnc(Nc2nc(Sc3ccc(NC(=O)C4CC4)cc3)nc(N3CCCCC3)n2)s1 [Example 44] | > 50%
21 | Cc1cc(Nc2nc(Sc3ccc(N)cc3)nc(C3CC3)n2)n[nH]1 [Example 45] | > 50%
22 | Cc1cnc(Nc2nc(N3CCN(C)CC3)nc(N3CCN(C)CC3)n2)s1 [Example 47] | < 50%
23 | Cc1cnc(Nc2nc(Sc3ccc(N)cc3)nc(N3CCN(C)CC3)n2)s1 [Example 48] | > 50%
24 | Cc1cnc(Nc2nc(Sc3cccc(N)c3)nc(N3CCN(C)CC3)n2)s1 [Example 49] | > 50%
25 | CN1CCN(c2nc(Nc3ncc(Cl)s3)nc(Sc3ccc(NC(=O)C4CC4)cc3)n2)CC1 [Example 50] | > 90%
26 | CC(C)c1cnc(Nc2nc(Sc3ccc(NC(=O)C4CC4)cc3)nc(N3CCN(C)CC3)n2)s1 [Example 52] | > 90%
27 | CN1CCN(c2nc(Nc3cc(C4CC4)[nH]n3)nc(Sc3ccc(NC(=O)C4CC4)cc3)n2)CC1 [Example 53] | > 90%
28 | CN1CCN(c2nc(Nc3cc(C(C)(C)C)[nH]n3)nc(Sc3ccc(NC(=O)C4CC4)cc3)n2)CC1 [Example 54] | > 50%
29 | CN1CCN(c2nc(Nc3cc(C4CCC4)[nH]n3)nc(Sc3ccc(NC(=O)C4CC4)cc3)n2)CC1 [Example 55] | > 90%
30 | CC(C)c1cc(Nc2nc(Sc3ccc(NC(=O)C4CC4)cc3)nc(N3CCN(C)CC3)n2)n[nH]1 [Example 56] | > 50%
31 | CCCc1cc(Nc2nc(Sc3ccc(NC(=O)C4CC4)cc3)nc(N3CCN(C)CC3)n2)n[nH]1 [Example 57] | < 50%
32 | CCc1nc(Nc2ncc(C)s2)nc(Sc2ccc(NC(=O)C3CC3)cc2)n1 [Example 58] | < 50%
33 | Cc1cnc(Nc2nc(Sc3ccc(NC(=O)C4CC4)cc3)nc(C3CC3)n2)s1 [Example 59] | > 50%
34 | CN1CCN(c2nc(Nc3nccs3)nc(Sc3ccc(NC(=O)C4CC4)cc3)n2)CC1 [Example 60] | < 50%
35 | Cc1nc(Nc2nc(Sc3ccc(NC(=O)C4CC4)cc3)nc(N3CCN(C)CC3)n2)sc1C [Example 61] | < 50%
36 | Cc1csc(Nc2nc(Sc3ccc(NC(=O)C4CC4)cc3)nc(N3CCN(C)CC3)n2)n1 [Example 64] | < 50%
37 | Cc1cn(-c2nc(Sc3ccc(NC(=O)C(C)C)cc3)nc(N3CCN(C)CC3)n2)c(=N)s1 [Example 66] | < 50%
38 | CC(=O)Nc1ccc(Sc2nc(N3CCN(C)CC3)nc(-n3cc(C)sc3=N)n2)cc1 [Example 67] | < 50%

Row | Compound | inhibition at 1 µM
39 | CC(=O)Nc1ccc(Sc2nc(CC(C)C)nc(-n3cc(C)sc3=N)n2)cc1 [Example 69] | < 50%
40 | Cc1cn(-c2nc(Sc3ccc(NC(=O)C4CC4)cc3)nc(N3CCN(C)CC3)n2)c(=N)s1 [Example 70] | < 50%
41 | Cc1cnc(Nc2nc(Sc3ccc(NC(=O)C(C)C)cc3)nc(N3CCN(C)CC3)n2)s1 [Example 71] | > 90%
42 | CC(=O)Nc1ccc(Sc2nc(CC(C)C)nc(Nc3ncc(C)s3)n2)cc1 [Example 72] | < 50%
43 | CC(=O)Nc1ccc(Sc2nc(Nc3ncc(C)s3)nc(N3CCN(C)CC3)n2)cc1 [Example 73] | > 90%
44 | CCc1nc(Nc2ncc(C)s2)nc(N2CCN(C)CC2)n1 [Example 75] | < 50%
45 | Cc1cc(Nc2nc(Sc3ccc(NC(=O)C4CC4)cc3)nc(N3CCN(C)CC3)n2)on1 [Example 76] | > 50%
46 | Cc1nnc(Nc2nc(Sc3ccc(NC(=O)C4CC4)cc3)nc(N3CCN(C)CC3)n2)s1 [Example 77] | < 50%
47 | Cc1cc(Nc2nc(Sc3ccc(NC(=O)C4CC4)cc3)nc(N3CCN(C)CC3)n2)sn1 [Example 78] | < 50%
48 | CC(C)C(=O)Nc1ccc(Sc2nc(Nc3cc(C4CC4)[nH]n3)nc(C3CC3)n2)cc1 [Example 79] | > 90%
49 | CCC(=O)Nc1ccc(Sc2nc(Nc3cc(C4CC4)[nH]n3)nc(C3CC3)n2)cc1 [Example 81] | > 90%
50 | CCC(=O)Nc1ccc(Sc2nc(Nc3cc(C)[nH]n3)nc(C3CC3)n2)cc1 [Example 82] | > 90%
51 | CCC(=O)Nc1ccc(Sc2nc(CC)nc(Nc3cc(C)[nH]n3)n2)cc1 [Example 83] | > 90%
52 | CCC(=O)Nc1ccc(Sc2nc(CC)nc(Nc3cc(C4CC4)[nH]n3)n2)cc1 [Example 84] | > 90%
53 | CCC(=O)Nc1ccc(Sc2nc(C)nc(Nc3cc(C)[nH]n3)n2)cc1 [Example 86] | > 90%
54 | CCC(=O)Nc1ccc(Sc2nc(C)nc(Nc3cc(C4CC4)[nH]n3)n2)cc1 [Example 87] | > 90%
55 | Cc1cc(Nc2nc(Sc3ccc(NC(=O)C4CC4)cc3)nc(N3CCOCC3)n2)n[nH]1 [Example 88] | > 90%
56 | Cc1cc(Nc2nc(Sc3ccc(NC(=O)C4CC4)cc3)nc(N3CCCC3)n2)n[nH]1 [Example 89] | > 90%
